The text below walks through data of patent US11453668B2, “JAK inhibitors containing a 4-membered heterocyclic amide” (THERAVANCE BIOPHARMA R&D IP, LLC, priority 2017, dated 2022).

Experiment [1] has as its system IL-5 mediated survival of human eosinophils. The experiment can be described thus: IL-5 mediated eosinophil survival assay. The format is cell-based. The protocol:
The potency of the test compound for IL-5 mediated eosinophil survival was measured in human eosinophils isolated from human whole blood (AllCells). Because IL-5 signals through JAK, this assay provides a measure of JAK cellular potency.
Human eosinophils were isolated from fresh human whole blood (AllCells) of healthy donors. Blood was mixed with 4.5% Dextran (Sigma-Aldrich) in a 0.9% sodium chloride solution (Sigma-Aldrich). Red blood cells were left to sediment for 35 minutes. The leukocyte rich upper layer was removed and layered over Ficoll-Paque (GE Healthcare) and centrifuged at 600 g for 30 minutes. The plasma and mononuclear cell layers were removed before the granulocyte layer was lysed with water to remove any contaminating red blood cells. […] Purity was analyzed using a LSRII flow cytometer (BD Biosciences). […]
After cytokine stimulation, cells were centrifuged at 300 g for 5 min and washed twice with cold DPBS (Life Technologies). To access viability and apoptosis, cells were incubated with Propidium Iodide (Thermo Fisher Scientific) and APC Annexin V (BD Biosciences) and analyzed using a LSRII flow cytometer (BD Biosciences). IC50 values were determined from analysis of the viability curves of percent cell viability vs compound concentration. Data are expressed as pIC50 (negative decadic logarithm IC50 ) values.

The test system of experiment [2] is IL-6 stimulated STAT3 phosphorylation in CD3+ T cells. Put plainly: Inhibition of IL-6 stimulated pSTAT3 in CD3+ T cells. The format is cell-based, human. From the text:
A protocol analogous to that of Assay 10 was used to determine the potency of the test compound for inhibition of interleuken-6 (IL-6) stimulated STAT3 phosphorylation. An Alexa Fluor 647 conjugated anti-pSTAT3 antibody (pY705, Clone 4/P, BD Biosciences) was used to detect STAT3 phosphorylation.

In experiment [3] the test system is IL-2/anti-CD3 stimulated IFNγ in human PBMCs. Put plainly: Inhibition of IL-2/anti-CD3 stimulated IFNγ in human PBMCs. The format is cell-based. The procedure: The potency of the test compound for inhibition of interleukin-2 (IL-2)/anti-CD3 stimulated interferon gamma (IFNγ) was measured in human peripheral blood mononuclear cells (PBMCs) isolated from human whole blood (Stanford Blood Center). Because IL-2 signals through JAK, this assay provides a measure of JAK cellular potency.
(1) Human peripheral blood mononuclear cells (PBMC) were isolated from human whole blood of healthy donors using a ficoll gradient. Cells were cultured in a 37° C., 5% CO2 humidified incubator in RPMI (Life Technologies) supplemented with 10% Heat Inactivated Fetal Bovine Serum (FBS, Life Technologies), 2 mM Glutamax (Life Technologies), 25 mM HEPES (Life Technologies) and 1X Pen/Strep (Life
Technologies). Cells were seeded at 200,000 cells/well in media (50 μL) and cultured for 1 h. Compounds were serially diluted in DMSO and then diluted another 500-fold (to a 2× final assay concentration) in media. […]
(2) After cytokine stimulation, cells were centrifuged at 500 g for 5 min and supernatants removed and frozen at −80° C. To determine the inhibitory potency of the test compound in response to IL-^2/anti-CD3, supernatant IFNγ concentrations were measured via ELISA (R&D Systems). IC50 values were determined from analysis of the inhibition curves of concentration of IFNγ vs compound concentration. Data are expressed as pIC50 (negative decadic logarithm IC50) values.

Turning to `CCc1cc(O)c(F)cc1-c1ccc2c(-c3nc4c([nH]3)CN(C(C)C)[C@H](C(=O)N3CC(N(C)C)C3)C4)n[nH]c2c1` [Example 2, (S)-(3-(dimethylamino)azetidin-1-yl)(2-(6-(2-ethyl-5-fluoro-4-hydroxyphenyl)-1H-indazol-3-yl)-5-isopropyl-4,5,6,7-tetrahydro-3H-imidazo [4,5-c]pyridin-6-yl)methanone], in experiment [1], the “inhibition of IL-5 mediated human eosinophil survival” value is “potently inhibit”. In addition, in experiment [2], the “inhibition of IL-6 signaling” value is “inhibit IL-6 signaling”. Besides, in experiment [3], the “inhibition of anti-CD3 and IL-2 induced release of IFNγ from activated human peripheral blood-isolated T cells” value is given as “inhibit”.
